Reference: patent publication US20230091047A1 (priority 2019, published 2023)
Where two headings read alike, the source gives them in different places.

Experiments:
[1] = system: HBV (HepG2.117 cell line, inducibly HBV producing); assay: Anti-HBV activity: intracellular HBV DNA by real-time PCR in HepG2.117 cells after 3 days of treatment; type: cell-based, hepatitis B virus
In short: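 First, HBV replication is induced in HepG2.117 cells by doxycycline absence. Next, serially diluted compound is added for 3 days. Finally, intracellular HBV DNA is quantified by HBV-specific real-time PCR.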

[2] = in vitro; type: cell-based; settings: human, HepG2 or HepG2.117 cells, ATPlite, mean value
In short: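 Luminescent ATP quantitation served as the viability endpoint following a 3- or 4-day incubation with test compounds.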

[3] = Hepatitis B virus, HepG2.117, 72 h, HepG2.117 cells, 3 days of treatment, intracellular HBV DNA by real-time PCR; mean value; read-out: EC50 (μM, mean value)
[4] = 3-days incubation (unmarked values)
[5] = Hepatitis B virus, HepG2.117, 72 h, HepG2.117 cells, intracellular HBV DNA by real-time PCR, 3 days of treatment, mean value; read-out: EC50 (μM, mean value)
[6] = 3-days incubation (not marked with *)

COC(=O)c1ccn(-c2ccc(-n3c(NC(C)C)nc4c(c3=O)C[C@@H](C)N(C(=O)c3ccc(Cl)c(Cl)c3)C4)cc2)n1 [Compound C267, methyl 1-{4-[(6R)-7-(3,4-dichlorobenzoyl)-6-methyl-4-oxo-2-[(propan-2-yl)amino]-5,6,7,8-tetrahydropyrido[3,4-d]pyrimidin-3(4H)-yl]phenyl}-1H-pyrazole-3-carboxylate]
EC50 [1, 3]: 0.21 µM
CC50 at 3 days [2, 4]: > 50 µM

COc1ccccc1-n1c(NCCO)nc2c(c1=O)CCN(C(=O)c1ccc(Cl)c(Cl)c1)C2 [Compound C37, 7-(3,4-dichlorobenzoyl)-2-[(2-hydroxyethyl)amino]-3-(2-methoxyphenyl)-5,6,7,8-tetrahydropyrido[3,4-d]pyrimidin-4(3H)-one]
EC50 [1, 3]: 32.1 µM
CC50 at 3 days [2, 4]: > 50 µM

Cc1nc(-c2ccc(-n3c(NC(C)C)nc4c(c3=O)C[C@@H](C)N(C(=O)c3ccc(Cl)c(Cl)c3)C4)c(Cl)c2)c[nH]1 [Compound C324, (6R)-3-[2-chloro-4-(2-methyl-1H-imidazol-4-yl)phenyl]-7-(3,4-dichlorobenzoyl)-6-methyl-2-[(propan-2-yl)amino]-5,6,7,8-tetrahydropyrido[3,4-d]pyrimidin-4(3H)-one]
EC50 [1, 3]: 0.41 µM
CC50 at 3 days [2, 4]: > 50 µM

CNC(=O)c1ccc(-n2c(N[C@@H](C)c3nccs3)nc3c(c2=O)C[C@@H](C)N(C(=O)c2ccc(Cl)c(Cl)c2)C3)cc1 (single isomer, unassigned) [Compound C434b]
EC50 [1, 5]: 0.84 µM
CC50 at 3 days [2, 6]: > 50 µM

CNC(=O)c1ccc(-n2c(NC(C)C)nc3c(c2=O)C[C@@H](C)N(C(=O)c2ccc(Br)c4c2OCCC4)C3)cc1 [Compound C588]
EC50 [1, 5]: 1.61 µM
CC50 at 3 days [2, 6]: > 50 µM

CNC(=O)c1cc(-n2c(NC(C)C)nc3c(c2=O)C[C@@H](C)N(C(=O)c2ccc(Cl)c(C(F)(F)F)c2)C3)n(C)n1 [Compound C645]
EC50 [1, 5]: 0.04 µM
CC50 at 3 days [2, 6]: > 50 µM

CC(C)Nc1nc2c(c(=O)n1-c1ccc(N3CCOCC3)cc1)C[C@@H](C)N(C(=O)c1ccc(Cl)c(Cl)c1)C2 [Compound C218, (6R)-7-(3,4-dichlorobenzoyl)-6-methyl-3-[4-(morpholin-4-yl)phenyl]-2-[(propan-2-yl)amino]-5,6,7,8-tetrahydropyrido[3,4-d]pyrimidin-4(3H)-one]
EC50 [1, 3]: 0.16 µM
CC50 at 3 days [2, 4]: > 50 µM

CNC(=O)c1ccc(-n2c(NC(C)C)nc3c(c2=O)C[C@@H](C)N(C(=O)c2ccc(Br)c(C)c2)C3)cc1 [Compound C589]
EC50 [1, 5]: 0.04 µM
CC50 at 3 days [2, 6]: > 50 µM

COc1ccccc1-n1c(N[C@H](C)CO)nc2c(c1=O)CCN(C(=O)c1ccc(Cl)c(Cl)c1)C2 (single isomer, unassigned) [Compound C62A, 7-(3,4-dichlorobenzoyl)-2-{[(2*R)-1-hydroxypropan-2-yl]amino}-3-(2-methoxyphenyl)-5,6,7,8-tetrahydropyrido[3,4-d]pyrimidin-4(3H)-one]
EC50 [1, 3]: 9.88 µM
CC50 at 3 days [2, 4]: > 50 µM

CC(C)Nc1nc2c(c(=O)n1-c1ccc(-n3cnnn3)cc1)C[C@@H](C)N(C(=O)c1ccc(Cl)c(Cl)c1)C2 [Compound C460]
EC50 [1, 5]: 0.09 µM
CC50 at 3 days [2, 6]: > 50 µM

CNC(=O)c1cc(-n2c(NC(C)C)nc3c(c2=O)C[C@@H](C)N(C(=O)c2ccc(Cl)c(Cl)c2)C3)[nH]n1 [Compound C355, 5-[(6R)-7-(3,4-dichlorobenzoyl)-6-methyl-4-oxo-2-[(propan-2-yl)amino]-5,6,7,8-tetrahydropyrido[3,4-d]pyrimidin-3(4H)-yl]-N-methyl-1H-pyrazole-3-carboxamide]
EC50 [1, 3]: 0.09 µM
CC50 at 3 days [2, 4]: 34.2 µM

CC(C)Nc1nc2c(c(=O)n1CCNS(C)(=O)=O)CCN(C(=O)c1ccc(Cl)c(Cl)c1)C2 [Compound C112, N-{2-[7-(3,4-dichlorobenzoyl)-4-oxo-2-[(propan-2-yl)amino]-5,6,7,8-tetrahydropyrido[3,4-d]pyrimidin-3(4H)-yl]ethyl}methanesulfonamide]
EC50 [1, 3]: 11.5 µM
CC50 at 3 days [2, 4]: > 50 µM

CNC(=O)c1ccc(-n2c(NCc3cccc(-n4cncn4)c3)nc3c(c2=O)C[C@@H](C)N(C(=O)c2ccc(Cl)c(Cl)c2)C3)cc1 [Compound C543]
EC50 [1, 5]: 7.02 µM
CC50 at 3 days [2, 6]: > 50 µM

CNC(=O)c1ccc(-n2c(NC(C)C)nc3c(c2=O)C[C@@H](C)N(C(=O)c2cc(Cl)c(Cl)cc2OC)C3)cc1 [Compound C590]
EC50 [1, 5]: 12.4 µM
CC50 at 3 days [2, 6]: > 50 µM

COc1ccccc1-n1c(N(C)C)nc2c(c1=O)CCN(C(=O)c1ccc(Cl)c(Cl)c1)C2 [Compound C46, 7-(3,4-dichlorobenzoyl)-2-(dimethylamino)-3-(2-methoxyphenyl)-5,6,7,8-tetrahydropyrido[3,4-d]pyrimidin-4(3H)-one]
EC50 [1, 3]: 6.49 µM
CC50 at 3 days [2, 4]: > 50 µM

C=CCNc1nc2c(c(=O)n1CC=C)CCN(C(=O)c1ccc(Cl)c(Cl)c1)C2 [Compound C89, 7-(3,4-dichlorobenzoyl)-3-(prop-2-en-1-yl)-2-[(prop-2-en-1-yl)amino]-5,6,7,8-tetrahydropyrido[3,4-d]pyrimidin-4(3H)-one]
EC50 [1, 3]: 8.76 µM
CC50 at 3 days [2, 4]: > 50 µM

COc1ccccc1-n1c(N[C@@H](C)c2ccccc2)nc2c(c1=O)CCN(C(=O)c1ccc(Cl)c(Cl)c1)C2 [Compound C35, 7-(3,4-dichlorobenzoyl)-3-(2-methoxyphenyl)-2-{[(1S)-1-phenylethyl]amino}-5,6,7,8-tetrahydropyrido[3,4-d]pyrimidin-4(3H)-one]
EC50 [1, 3]: 1.41 µM
CC50 at 3 days [2, 4]: 33.2 µM

CNC(=O)c1ccc(-n2c(NC(C)C)nc3c(c2=O)CCN(C(=O)c2ccc(Cl)c(Cl)c2)C3)cc1F [Compound C219, 4-[7-(3,4-dichlorobenzoyl)-4-oxo-2-[(propan-2-yl)amino]-5,6,7,8-tetrahydropyrido[3,4-d]pyrimidin-3(4H)-yl]-2-fluoro-N-methylbenzamide]
EC50 [1, 3]: 0.28 µM
CC50 at 3 days [2, 4]: > 50 µM

CC(C)Nc1nc2c(c(=O)n1-c1ccc(S(C)(=O)=O)cc1)CCN(C(=O)c1ccc3ncoc3c1)C2 [Compound C151, 7-(1,3-benzoxazole-6-carbonyl)-3-[4-(methanesulfonyl)phenyl]-2-[(propan-2-yl)amino]-5,6,7,8-tetrahydropyrido[3,4-d]pyrimidin-4(3H)-one]
EC50 [1, 3]: 10.7 µM
CC50 at 3 days [2, 4]: > 50 µM

CNC(=O)[C@H]1CC[C@@H](n2c(N[C@@H](C)c3ccc(C(F)(F)F)cc3)nc3c(c2=O)C[C@@H](C)N(C(=O)c2ccc(Cl)c(Cl)c2)C3)CC1 [Compound C644]
EC50 [1, 5]: 0.23 µM
CC50 at 3 days [2, 6]: 7.5 µM

CNC(=O)c1ccc(-n2c(NCc3ccccc3-n3ccnc3)nc3c(c2=O)C[C@@H](C)N(C(=O)c2ccc(Cl)c(Cl)c2)C3)cc1 [Compound C485]
EC50 [1, 5]: 11.9 µM
CC50 at 3 days [2, 6]: 24.9 µM

CNC(=O)c1ccc(-n2c(NC(C)C)nc3c(c2=O)C[C@@H](C)N(C(=O)c2ccc(Cl)c(C(F)(F)F)c2)C3)c(C2CC2)c1 [Compound C661]
EC50 [1, 5]: 0.07 µM
CC50 at 3 days [2, 6]: 25 µM

CNC(=O)c1ccc(-n2c(N[C@@H](C)CO)nc3c(c2=O)C[C@@H](C)N(C(=O)c2ccc(Cl)c(Cl)c2)C3)cc1 [Compound C272, 4-[(6R)-7-(3,4-dichlorobenzoyl)-2-{[(2S)-1-hydroxypropan-2-yl]amino}-6-methyl-4-oxo-5,6,7,8-tetrahydropyrido[3,4-d]pyrimidin-3(4H)-yl]-N-methylbenzamide]
EC50 [1, 3]: 2.39 µM
CC50 at 3 days [2, 4]: > 50 µM
